Laboratory results taken from US8912186B2, “Allosteric protein kinase modulators” (Universitaet des Saarlandes, priority 2008, dated 2014).

Experiments:
PDK1 [1] = target: T1, PDK1 (Homo sapiens, UniProt O15530); assay: cell-free kinase activity assay (ATPgamma[32P], T308tide substrate); assay type: biochemical; settings: for AC50: concentration of the compound required to activate half maximally; for AC50 / max. activation of PDK1 (fold): n.e.: no effect; for max. activation of PDK1 (fold): maximum activation achievable, compared to the basal activity of PDK1; for activity at 50 µM: 50 μM compound; for activity at 50 µM / activity at 200 µM: DMSO control set 100%, read-out: percent of catalytic activity of the Kinase in the presence of compound as compared to the solvent control (DMSO): PDK1; for activity at 200 µM: 200 μM compound
T1 construct: GST
T1 sequence (O15530 1-556): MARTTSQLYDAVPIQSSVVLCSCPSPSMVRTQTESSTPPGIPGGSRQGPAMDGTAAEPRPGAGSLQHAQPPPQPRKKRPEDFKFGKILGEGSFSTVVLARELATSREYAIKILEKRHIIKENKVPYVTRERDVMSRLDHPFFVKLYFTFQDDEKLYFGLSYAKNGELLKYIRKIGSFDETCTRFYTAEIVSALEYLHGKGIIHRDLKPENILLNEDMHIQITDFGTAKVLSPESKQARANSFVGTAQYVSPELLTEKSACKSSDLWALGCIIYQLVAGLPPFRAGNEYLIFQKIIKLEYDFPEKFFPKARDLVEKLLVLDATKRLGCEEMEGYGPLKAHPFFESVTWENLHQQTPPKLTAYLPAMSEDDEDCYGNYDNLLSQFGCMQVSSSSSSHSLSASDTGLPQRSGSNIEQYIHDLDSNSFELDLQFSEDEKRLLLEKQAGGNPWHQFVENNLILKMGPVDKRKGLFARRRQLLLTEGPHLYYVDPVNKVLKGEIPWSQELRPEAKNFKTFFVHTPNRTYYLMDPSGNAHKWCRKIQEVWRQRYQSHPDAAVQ
Method in brief: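 Radiometric ATPγ[32P] kinase assay; for PDK1, 200 ng enzyme with 1 mM T308tide substrate, run at room temperature for 30 min. Reaction started with ATP-Mg and stopped with phosphoric acid. Incorporated radioactivity measured after spotting on phosphocellulose paper and washing.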

[2] = test system: PC3 prostate carcinoma cells; assay: MTT assay, number of living cells; assay type: cell-based; settings: 36 h; for number of PC3 cells as compared to the DMSO-treated control (proliferation / cell death): serum starved, IGF-I, 5% FCS
Description: Cells were serum starved overnight and stimulated or not with 50 μg/ml IGF-I, then test compounds and 5% FCS were added, and cells grown for 36 h. A standard MTT assay was then performed to measure the number of living cells.
To measure the potency of selected compounds to inhibit growth of a cancer cell line, the widely established MTT assay was used. The assay principle relies on the formation of a purple formazan dye from MTT which has been added to the cultured cells due to mitochondrial reductase activity in intact cells. After 3-4 hours of cell incubation with MTT, formazan crystals develop in living and early apoptotic cells but not in dead cells. MTT is suitable for measuring cell proliferation and cell viability.
Thus the cell's viability critically relies on high activities of this pathway but on the other hand it requires highly efficient inhibitors to hit the cells.

PDK1 [3] = target: T2, PDK1 (Homo sapiens, UniProt O15530); assay: TNP-ATP fluorescence probe of the ATP binding site conformation; settings: for TNP-ATP fluorescence intensity in the presence of PDK1: addition to the TNP-ATP-PDK1 mixture
T2 construct: maximal fluorescence intensity of TNP-ATP obtained with addition of 15 μM PDK1 CD
T2 sequence (O15530 82-342 limits assumed): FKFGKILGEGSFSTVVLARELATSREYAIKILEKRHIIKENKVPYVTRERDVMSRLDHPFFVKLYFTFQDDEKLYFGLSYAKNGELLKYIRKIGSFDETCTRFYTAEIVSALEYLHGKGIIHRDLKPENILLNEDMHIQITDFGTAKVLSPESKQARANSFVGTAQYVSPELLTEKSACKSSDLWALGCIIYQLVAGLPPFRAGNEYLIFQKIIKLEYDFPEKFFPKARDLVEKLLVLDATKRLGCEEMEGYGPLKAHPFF
Description: In order to shed further light on the conformational change induced by the binding of small compounds to the PIF-binding pocket of PDK1, we developed a method to probe the ATP binding site conformation in solution with the use of a fluorescent ATP analogue, trinitrophenyl-ATP (TNP-ATP; FIG. 5A). […] Since the decrease in fluorescence intensity was also measured with phosphorylated HM polypeptides and PIFtide, it is likely that the ATP-binding site conformational change measured was actually related to the equivalent events that activate PDK1 by low molecular weight compounds and HM-polypeptides.
(A) TNP-ATP formulae. (B, C and D) Fluorescence intensities are expressed as % of the maximal fluorescence intensity of TNP-ATP obtained with addition of 15 μM PDK1 CD. (B) Effect of PDK1 addition on TNP-ATP fluorescence. (C) Addition of PS08 to the TNP-ATP-PDK1 mixture triggered a concentration dependent decrease of the fluorescence intensity. At 167 μM PS08 (=PS-T-8), the maximum fluorescence intensity was 60%, similar to TNP-ATP alone. (D) Effect of 167 μM PS133, the isomer compound PS08 to the TNP-ATP-PDK1.

PKCζ = target: T3, PKCζ (Homo sapiens, UniProt Q05513); assay: cell-free kinase activity assay; assay type: biochemical; settings: DMSO control set 100%; for remaining activity at 200 µM: 200 μM compound
T3 sequence (Q05513 1-592): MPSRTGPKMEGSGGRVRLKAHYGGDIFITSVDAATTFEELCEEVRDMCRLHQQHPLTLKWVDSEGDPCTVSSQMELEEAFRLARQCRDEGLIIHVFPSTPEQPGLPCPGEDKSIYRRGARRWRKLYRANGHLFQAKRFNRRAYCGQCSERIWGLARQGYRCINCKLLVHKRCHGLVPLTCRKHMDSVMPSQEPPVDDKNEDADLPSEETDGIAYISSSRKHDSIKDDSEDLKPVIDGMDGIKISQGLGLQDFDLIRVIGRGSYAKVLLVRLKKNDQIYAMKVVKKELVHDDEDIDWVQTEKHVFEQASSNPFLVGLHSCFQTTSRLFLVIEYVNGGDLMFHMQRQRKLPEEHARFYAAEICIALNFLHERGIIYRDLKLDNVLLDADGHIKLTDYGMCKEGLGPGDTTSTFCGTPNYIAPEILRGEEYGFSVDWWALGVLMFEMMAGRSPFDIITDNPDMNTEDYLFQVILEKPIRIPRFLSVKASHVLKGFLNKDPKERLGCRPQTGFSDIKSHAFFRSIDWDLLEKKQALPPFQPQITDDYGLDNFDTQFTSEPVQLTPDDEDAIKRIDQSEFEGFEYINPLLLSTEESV

SGK = target: T4, SGK (Homo sapiens, UniProt O00141); assay: cell-free kinase activity assay; assay type: biochemical; settings: DMSO control set 100%; for percent of catalytic activity of the Kinase in the presence of compound as compared to the solvent control (DMSO): SGK: 50 μM compound; for remaining activity at 200 µM: 200 μM compound, read-out: percent of catalytic activity of the Kinase in the presence of compound as compared to the solvent control (DMSO): SGK
T4 sequence (O00141 1-431): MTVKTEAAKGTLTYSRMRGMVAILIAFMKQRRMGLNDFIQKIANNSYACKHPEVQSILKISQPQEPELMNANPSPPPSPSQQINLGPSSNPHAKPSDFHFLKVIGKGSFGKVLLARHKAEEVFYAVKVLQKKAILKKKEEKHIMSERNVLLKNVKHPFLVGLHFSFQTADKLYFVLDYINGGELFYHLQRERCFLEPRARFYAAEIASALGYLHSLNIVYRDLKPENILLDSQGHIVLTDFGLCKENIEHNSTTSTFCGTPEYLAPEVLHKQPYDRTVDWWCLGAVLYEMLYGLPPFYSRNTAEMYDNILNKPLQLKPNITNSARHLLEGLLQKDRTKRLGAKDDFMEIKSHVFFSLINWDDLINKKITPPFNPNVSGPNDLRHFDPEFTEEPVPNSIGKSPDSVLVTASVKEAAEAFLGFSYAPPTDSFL

PRK2 = PRK2 (Homo sapiens, UniProt Q16513); assay: cell-free kinase activity assay; assay type: biochemical; settings: DMSO control set 100%
Chain of PRK2 (Q16513 whole entry, species assumed): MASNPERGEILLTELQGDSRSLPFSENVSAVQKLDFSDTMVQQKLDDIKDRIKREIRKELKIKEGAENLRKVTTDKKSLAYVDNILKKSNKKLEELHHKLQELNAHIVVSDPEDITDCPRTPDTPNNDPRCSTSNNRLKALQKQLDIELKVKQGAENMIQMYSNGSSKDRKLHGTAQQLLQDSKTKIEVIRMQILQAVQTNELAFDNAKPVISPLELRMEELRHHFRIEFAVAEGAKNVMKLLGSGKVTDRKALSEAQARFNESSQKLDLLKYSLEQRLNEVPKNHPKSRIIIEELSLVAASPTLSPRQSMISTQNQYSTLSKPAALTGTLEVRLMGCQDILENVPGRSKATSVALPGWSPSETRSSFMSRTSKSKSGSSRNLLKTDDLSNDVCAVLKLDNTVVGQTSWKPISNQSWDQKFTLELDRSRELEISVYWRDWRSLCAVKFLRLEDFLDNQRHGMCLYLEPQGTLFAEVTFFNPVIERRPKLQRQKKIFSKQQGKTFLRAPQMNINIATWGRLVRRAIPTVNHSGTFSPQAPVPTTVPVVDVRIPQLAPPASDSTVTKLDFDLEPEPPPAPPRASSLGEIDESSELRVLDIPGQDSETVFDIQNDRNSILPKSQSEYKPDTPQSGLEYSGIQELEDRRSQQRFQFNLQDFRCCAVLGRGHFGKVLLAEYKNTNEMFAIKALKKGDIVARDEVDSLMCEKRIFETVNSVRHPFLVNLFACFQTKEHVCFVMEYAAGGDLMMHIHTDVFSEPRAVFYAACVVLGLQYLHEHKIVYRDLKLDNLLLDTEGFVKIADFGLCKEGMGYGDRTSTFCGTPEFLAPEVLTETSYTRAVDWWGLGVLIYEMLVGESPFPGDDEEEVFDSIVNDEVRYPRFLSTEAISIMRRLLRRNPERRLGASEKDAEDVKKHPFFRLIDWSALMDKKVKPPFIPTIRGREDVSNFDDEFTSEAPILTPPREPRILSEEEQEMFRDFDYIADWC

S6K = S6K (Homo sapiens, UniProt P23443); assay: cell-free kinase activity assay; assay type: biochemical; settings: DMSO control set 100%; for percent of catalytic activity of the Kinase in the presence of compound as compared to the solvent control (DMSO): S6K: 50 μM compound; for remaining activity at 200 µM: 200 μM compound, read-out: percent of catalytic activity of the Kinase in the presence of compound as compared to the solvent control (DMSO): S6K
Chain of S6K (P23443 whole entry): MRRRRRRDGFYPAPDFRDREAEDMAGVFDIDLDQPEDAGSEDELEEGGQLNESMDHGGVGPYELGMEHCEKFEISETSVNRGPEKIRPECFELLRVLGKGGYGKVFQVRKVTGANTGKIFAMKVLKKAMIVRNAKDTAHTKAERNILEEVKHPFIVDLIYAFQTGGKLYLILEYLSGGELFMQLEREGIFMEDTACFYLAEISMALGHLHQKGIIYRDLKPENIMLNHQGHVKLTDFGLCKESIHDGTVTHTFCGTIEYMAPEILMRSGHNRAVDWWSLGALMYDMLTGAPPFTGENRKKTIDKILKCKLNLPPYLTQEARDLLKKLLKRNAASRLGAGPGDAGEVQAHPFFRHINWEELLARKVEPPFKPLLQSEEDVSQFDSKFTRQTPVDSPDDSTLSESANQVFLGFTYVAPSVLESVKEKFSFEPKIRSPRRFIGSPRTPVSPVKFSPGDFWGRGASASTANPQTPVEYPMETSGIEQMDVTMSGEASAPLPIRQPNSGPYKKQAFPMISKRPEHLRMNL

PKBβ = PKBβ (Homo sapiens, UniProt P31751); assay: cell-free kinase activity assay; assay type: biochemical; settings: DMSO control set 100%
Chain of PKBβ (P31751 whole entry, species assumed): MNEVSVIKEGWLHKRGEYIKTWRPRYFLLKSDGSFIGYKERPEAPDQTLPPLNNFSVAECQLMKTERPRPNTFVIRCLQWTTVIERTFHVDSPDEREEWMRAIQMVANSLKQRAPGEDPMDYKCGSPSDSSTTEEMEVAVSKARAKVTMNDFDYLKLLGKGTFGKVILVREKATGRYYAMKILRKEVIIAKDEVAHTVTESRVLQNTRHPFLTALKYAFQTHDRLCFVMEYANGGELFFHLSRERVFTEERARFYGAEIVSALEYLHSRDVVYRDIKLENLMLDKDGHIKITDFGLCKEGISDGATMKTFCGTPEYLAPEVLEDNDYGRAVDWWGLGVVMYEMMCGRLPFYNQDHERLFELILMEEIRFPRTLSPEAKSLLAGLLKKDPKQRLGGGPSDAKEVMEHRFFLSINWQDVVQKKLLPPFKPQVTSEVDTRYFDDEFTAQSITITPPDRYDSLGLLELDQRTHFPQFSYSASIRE

PKA = PKA (Homo sapiens, UniProt P17612); assay: cell-free kinase activity assay; assay type: biochemical; settings: DMSO control set 100%
[4] = read-out: percent of catalytic activity of the Kinase in the presence of compound as compared to the solvent control (DMSO): PKCζ

SMILES | AC50 (PDK1 [1]) [µM] | max. activation of PDK1 (fold) (PDK1 [1]) | TNP-ATP fluorescence intensity in the presence of PDK1 (PDK1 [3]) | activity at 50 µM (PDK1 [1]) [%] | activity at 200 µM (PDK1 [1]) [%] | remaining activity at 200 µM (PKCζ; [4]) [%] | percent of catalytic activity of the Kinase in the presence of compound as compared to the solvent control (DMSO): SGK (SGK) | remaining activity at 200 µM (SGK) [%] | percent of catalytic activity of the Kinase in the presence of compound as compared to the solvent control (DMSO): PRK2 (PRK2; 50 μM compound) | percent of catalytic activity of the Kinase in the presence of compound as compared to the solvent control (DMSO): PRK2 (PRK2; 200 μM compound) | percent of catalytic activity of the Kinase in the presence of compound as compared to the solvent control (DMSO): S6K (S6K) | remaining activity at 200 µM (S6K) [%] | percent of catalytic activity of the Kinase in the presence of compound as compared to the solvent control (DMSO): PKBβ (PKBβ; 50 μM compound) | percent of catalytic activity of the Kinase in the presence of compound as compared to the solvent control (DMSO): PKA (PKA; 50 μM compound) | other results
O=C(O)/C=C(/CSc1ccc(Cl)cc1)c1ccccc1 [PS 99, (E)-4-(4-Chlorophenylthio)-3-phenylbut-2-enoic acid] | 22.8 | 2.6 |  |  |  |  |  |  |  |  |  |  |  |  | concentration at which effects were detectable ([2]; PC3 cells): 10 to 20 µM; number of PC3 cells as compared to the DMSO-treated control (proliferation / cell death) [2]: can inhibit the proliferation of/or induce cell death of cancer cells; number of PC3 cells as compared to the DMSO-treated control (proliferation / cell death) ([2]; listed as PS99): significantly reduced
O=C(O)/C=C(\CCc1ccc(Br)cc1F)c1ccccc1 [PS 133, (E)-5-(4-Bromo-2-fluorophenyl)-3-phenylpent-2-enoic acid] |  |  | did not affect |  |  |  |  |  |  |  |  |  |  |  | 
O=C(O)CC(Cc1nc2cc(Cl)c(Cl)cc2[nH]1)c1ccccc1 (stereo not drawn) [PS 163, 4-(5,6-Dichloro-2-benzimidazolyl)-3-phenylbutanoic acid] |  |  |  | ~250 | > 250 | 50 | no effect | ~60 | no effect | no effect | no effect | ~50 | no effect | no effect | percent of catalytic activity of the Kinase in the presence of compound as compared to the solvent control (DMSO): PKCζ (PKCζ; 50 μM compound): no effect; percent of catalytic activity of the Kinase in the presence of compound as compared to the solvent control (DMSO): PKBβ (PKBβ; 200 μM compound): no effect; percent of catalytic activity of the Kinase in the presence of compound as compared to the solvent control (DMSO): PKA (PKA; 200 μM compound): no effect
O=C(O)/C=C(/CCc1ccc(C(F)(F)F)cc1)c1ccccc1 [PS-T5, (Z)-3-Phenyl-5-[4-(trifluoromethyl)phenyl]pent-2-enoic acid] | 13.8 | 4.7 |  | > 250 | > 250 | ~0 | weak inhib. | ~20 | no effect | no effect | no effect | ~60 | no effect | no effect | remaining activity at 50 µM (PKCζ; 50 μM compound, read-out: percent of catalytic activity of the Kinase in the presence of compound as compared to the solvent control (DMSO): PKCζ): ~0%; remaining activity at 200 µM (PKBβ; 200 μM compound, read-out: percent of catalytic activity of the Kinase in the presence of compound as compared to the solvent control (DMSO): PKBβ): ~80%; remaining activity at 200 µM (PKA; 200 μM compound, read-out: percent of catalytic activity of the Kinase in the presence of compound as compared to the solvent control (DMSO): PKA): ~60%
O=C(O)/C=C(/CCc1ccc(Br)cc1F)c1ccccc1 [PS-T8, (Z)-5-(4-Bromo-2-fluorophenyl)-3-phenylpent-2-enoic acid] |  |  | concentration-dependent decrease |  |  |  |  |  |  |  |  |  |  |  | maximum fluorescence intensity of TNP-ATP (PDK1 [3]; 167 μM compound, % of the maximal fluorescence intensity of TNP-ATP obtained with 15 μM PDK1 CD): 60%
CO[C@H]1C[C@@H]2CC[C@@H](C)[C@@](O)(O2)C(=O)C(=O)N2CCCC[C@H]2C(=O)O[C@H]([C@H](C)C[C@@H]2CC[C@@H](O)[C@H](OC)C2)CC(=O)[C@H](C)/C=C(\C)[C@@H](O)[C@@H](OC)C(=O)[C@H](C)C[C@H](C)/C=C/C=C/C=C/1C [rapamycin, reference compound] |  |  |  |  |  |  |  |  |  |  |  |  |  |  | EC50 ([2]; Homo sapiens, PC-3, PC3 cells, control drug): ~1000 nM
